The record followed here is patent publication US20160130226A1, “SPIRO-SUBSTITUTED OXINDOLE DERIVATIVES HAVING AMPK ACTIVITY” (BOEHRINGER INGELHEIM INTERNATIONAL GMBH, priority 2013, published 2016).

In assay [1] the target is T1, AMPK beta 2 (Mus musculus, UniProt Q6PAM0+Q8BRK8).
T1 construct: fully differentiated myotubes (C2C12 cells) grown in 96 well plate; endogenous in cells; host or cells: C2C12 myotubes (assignment to the beta 2 column inferred)
The experiment in a line: in-cell-ELISA for phospho-ACC: activation of AMPK, beta 2 (HepG2 cells / C2C12 myotubes). In kind it is cell-based. The settings on record: 2 h, percentage activation over vehicle control, read-out: Percentage activation of beta 2 at given concentration. The protocol: (§1) Activation of AMPK by various compounds were measured using in-cell-ELISA for phospho-ACC (Acetyl-CoA carboxylase 1) in HepG2 cells (liver) and fully differentiated myotubes (C2C12 cells) grown in 96 well plate. Cells were treated with 1 μM, 3 μM or 10 μM of the molecule (Example) for 2 h in serum free DMEM media. After methanol fixation, cells were blocked with BSA followed by addition of anti-phospho ACC antibody (Cell Signaling) and HRP conjugated secondary antibody. Absorbance values taken at 450 nm were normalized with total DNA (Hoechest stain). Results were expressed as percentage activation over vehicle control.
(§2) Percentage activation at compound (Example) concentration of 1, 3 or 10 μM for compounds according to the invention are shown in the following table. The number of the compound corresponds to the number of the Example (Ex) in the experimental section.

Assay [2] deals with T2, AMPK beta 1 (Homo sapiens, UniProt Q13131+Q9Y478).
T2 construct: in-cell-ELISA for phospho-ACC (Acetyl-CoA carboxylase 1) in HepG2 cells (liver); endogenous in cells; host or cells: HepG2 (assignment to the beta 1 column inferred)
T2 sequence (Q9Y478 2-270 limits assumed): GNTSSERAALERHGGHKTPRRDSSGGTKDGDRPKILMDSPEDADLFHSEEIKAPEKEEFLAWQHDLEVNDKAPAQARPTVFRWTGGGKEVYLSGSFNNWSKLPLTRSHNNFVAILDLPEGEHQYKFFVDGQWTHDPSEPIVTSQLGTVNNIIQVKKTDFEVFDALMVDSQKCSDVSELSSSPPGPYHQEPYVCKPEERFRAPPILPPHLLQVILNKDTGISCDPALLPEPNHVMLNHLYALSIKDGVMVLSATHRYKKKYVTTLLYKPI
T2 sequence (Q13131 whole entry): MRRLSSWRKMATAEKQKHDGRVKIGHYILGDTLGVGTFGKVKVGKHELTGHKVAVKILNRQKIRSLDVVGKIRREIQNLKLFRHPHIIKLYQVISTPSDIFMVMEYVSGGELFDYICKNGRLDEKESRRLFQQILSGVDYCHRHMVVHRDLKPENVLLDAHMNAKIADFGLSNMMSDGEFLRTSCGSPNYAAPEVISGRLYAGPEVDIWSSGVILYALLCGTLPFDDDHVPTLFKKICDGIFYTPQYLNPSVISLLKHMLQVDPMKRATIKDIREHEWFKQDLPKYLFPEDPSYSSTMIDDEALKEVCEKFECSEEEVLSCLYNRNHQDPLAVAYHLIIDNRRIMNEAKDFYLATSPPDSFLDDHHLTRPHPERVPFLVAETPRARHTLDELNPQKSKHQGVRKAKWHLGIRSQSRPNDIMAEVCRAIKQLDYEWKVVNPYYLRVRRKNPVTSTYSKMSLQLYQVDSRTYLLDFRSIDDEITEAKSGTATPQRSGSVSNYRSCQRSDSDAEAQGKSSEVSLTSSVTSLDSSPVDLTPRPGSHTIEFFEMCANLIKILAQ
T2 sequence (P54619 whole entry partner): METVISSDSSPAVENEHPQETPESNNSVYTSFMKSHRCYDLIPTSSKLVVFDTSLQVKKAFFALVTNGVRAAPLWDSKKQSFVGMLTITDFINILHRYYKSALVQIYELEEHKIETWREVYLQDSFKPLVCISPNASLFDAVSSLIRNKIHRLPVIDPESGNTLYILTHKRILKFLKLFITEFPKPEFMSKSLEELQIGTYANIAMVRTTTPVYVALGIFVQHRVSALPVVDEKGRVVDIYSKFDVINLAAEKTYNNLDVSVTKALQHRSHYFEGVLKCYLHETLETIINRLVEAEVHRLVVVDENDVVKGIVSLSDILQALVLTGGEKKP
The assay can be described thus: in-cell-ELISA for phospho-ACC: activation of AMPK, beta 1 (HepG2 cells / C2C12 myotubes). In kind it is cell-based. The settings on record: 2 h, percentage activation over vehicle control; for activation at 3 µM / activation at 1 µM / activation at 10 µM: read-out: Percentage activation of beta 1 at given concentration. The protocol: as §1, §2

T1 sequence (Q6PAM0 whole entry): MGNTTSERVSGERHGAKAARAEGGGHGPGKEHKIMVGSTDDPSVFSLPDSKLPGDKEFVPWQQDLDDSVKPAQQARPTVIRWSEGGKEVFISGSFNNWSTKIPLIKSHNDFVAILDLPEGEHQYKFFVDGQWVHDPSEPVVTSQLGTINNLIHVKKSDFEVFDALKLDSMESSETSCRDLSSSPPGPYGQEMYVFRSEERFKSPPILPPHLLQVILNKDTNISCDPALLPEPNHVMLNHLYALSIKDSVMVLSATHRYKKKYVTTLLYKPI
T1 sequence (Q8BRK8 whole entry): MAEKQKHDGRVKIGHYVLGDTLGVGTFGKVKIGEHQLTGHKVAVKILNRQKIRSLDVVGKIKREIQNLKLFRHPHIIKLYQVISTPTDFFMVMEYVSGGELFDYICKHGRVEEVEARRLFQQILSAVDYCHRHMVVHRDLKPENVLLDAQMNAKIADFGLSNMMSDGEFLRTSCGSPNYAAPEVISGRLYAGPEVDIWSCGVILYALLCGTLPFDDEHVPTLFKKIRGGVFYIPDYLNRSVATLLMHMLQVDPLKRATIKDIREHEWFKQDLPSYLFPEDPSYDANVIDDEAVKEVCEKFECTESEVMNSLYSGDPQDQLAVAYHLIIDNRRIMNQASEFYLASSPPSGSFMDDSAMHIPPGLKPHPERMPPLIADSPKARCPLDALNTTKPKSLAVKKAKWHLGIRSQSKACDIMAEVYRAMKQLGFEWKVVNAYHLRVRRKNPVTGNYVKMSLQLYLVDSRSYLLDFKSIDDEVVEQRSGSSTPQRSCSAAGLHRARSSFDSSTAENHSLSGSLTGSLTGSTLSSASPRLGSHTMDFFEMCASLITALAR
T1 sequence (O54950 whole entry partner): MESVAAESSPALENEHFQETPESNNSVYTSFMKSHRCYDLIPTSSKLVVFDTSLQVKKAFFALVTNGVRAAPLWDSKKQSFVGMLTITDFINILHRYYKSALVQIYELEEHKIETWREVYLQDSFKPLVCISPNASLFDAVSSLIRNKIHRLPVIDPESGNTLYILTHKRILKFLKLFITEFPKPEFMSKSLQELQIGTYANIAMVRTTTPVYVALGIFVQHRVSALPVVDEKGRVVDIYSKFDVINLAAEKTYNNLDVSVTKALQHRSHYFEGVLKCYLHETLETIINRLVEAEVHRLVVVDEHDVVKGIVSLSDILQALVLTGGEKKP

Regarding `Cc1ccc(C2CC23C(=O)Nc2cc(F)c(-c4ccc(-c5ccccc5O)cc4)cc23)cc1C(=O)O` (stereo not shown) [Example 5], the activation at 1 µM in assay [1] is 50%. The activation at 3 µM in assay [2] (3 μM) is 133%. With `COc1ccc(C2CC23C(=O)Nc2cc(Cl)c(-c4ccc(-c5ccccc5O)cc4)cc23)cc1CC(=O)O` (stereo not shown) [Example 25], the activation at 3 µM in assay [1] was determined as 101%. Besides, the activation at 1 µM in assay [2] (1 μM) stood at 62%.

In the case of `O=C(O)Cc1ccc(C2CC23C(=O)Nc2cc(Cl)c(-c4ccc(-c5ccccc5O)cc4)cc23)cc1` (stereo not shown) [Example 33], the activation at 3 µM came out at 83% in assay [1] and 71% in assay [2] (3 μM). For `COc1ccc(C2CC23C(=O)N(C)c2cc(Cl)c(-c4ccc(-c5ccccc5O)cc4)cc23)cc1CC(=O)O` (stereo not shown) [Example 35], the results for the activation at 3 µM in assay [1] and in assay [2] (3 μM) were 23% and 27%, respectively. For `CC(C)(C(=O)O)c1ccc(C2CC23C(=O)Nc2cc(Cl)c(-c4ccc(-c5ccccc5O)cc4)cc23)cc1` (stereo not shown) [Example 38], the activation at 3 µM in assay [1] was found to be 106%. The activation at 1 µM in assay [2] (1 μM) is 58%. On to `CC(C)c1ccc(C2CC23C(=O)N(C)c2cc(Cl)c(-c4ccc(-c5ccncc5O)cc4)cc23)cc1C(=O)O` (stereo not shown) [Example 40], for which the activation at 3 µM worked out at 32% in assay [1] and 99% in assay [2] (3 μM). On to `CC(C)c1ccc(C2CC23C(=O)Nc2cc(Cl)c(-c4ccc(C5(CO)CC5)cc4)cc23)cc1C(=O)O` (stereo not shown) [Example 46], for which the activation at 3 µM in assay [1] came out at 42%; in assay [2] (3 μM), 83%. For the compound `Cc1ccc(C2CC23C(=O)Nc2cc(Cl)c(-c4ccc(-c5ccncc5)cc4)cc23)cc1C(=O)O` (stereo not shown) [Example 60], the activation at 3 µM in assay [1] was found to be 105%. Further, the activation at 1 µM in assay [2] (1 μM) was determined as 66%.

For the compound `O=C(O)c1cccc(C2CC23C(=O)Nc2cc(Cl)c(-c4ccc(-c5ccncc5)cc4)cc23)c1` (stereo not shown) [Example 80], the activation at 3 µM in assay [1] was determined as 54%. In addition, in assay [2], the activation at 10 µM stood at 137%. Take `Cc1ccc(C2CC23C(=O)Nc2cc(Cl)c(-c4ccc(-c5ccnc(N(C)C)c5)cc4)cc23)cc1C(=O)O` (stereo not shown) [Example 86]: the values for the activation at 3 µM in assay [1] and in assay [2] (3 μM) were 49% and 95%, respectively. In the case of `O=C(O)c1ccc(C2CC23C(=O)Nc2cc(Cl)c(-c4ccc(-c5ccncc5)cc4)cc23)cc1` (stereo not shown) [Example 95], the activation at 10 µM in assay [1] (10 μM) came to 34%; in assay [2], 94%.

Consider `Cc1ccc(C2CC23C(=O)Nc2cc(Cl)c(-c4ccc(-c5ccc(S(C)(=O)=O)cc5)cc4)cc23)cc1C(=O)O` (stereo not shown) [Example 97], for which the activation at 1 µM in assay [1] was determined as 37%; in assay [2] (1 μM), 99%.

For `Cc1ccc(C2CC23C(=O)Nc2cc(Cl)c(-c4ccc(-c5ccc(-n6cncn6)cc5)cc4)cc23)cc1C(=O)O` (stereo not shown) [Example 116], the activation at 3 µM in assay [2] (3 μM) was 100%. As for `Cc1ccc(C2CC23C(=O)Nc2cc(Cl)c(-c4ccc(-c5ccc(-n6cncn6)cc5)cc4)cc23)cc1C(=O)O` (stereo not shown) [Example 117], the “Percentage activation of beta 1 at given concentration” value (shortened to “Percentage activation”) in assay [2] (1 μM) is on record as 165% at 1 μM.

For `Cc1ccc(C2CC23C(=O)Nc2cc(Cl)c(-c4ccc(-c5ccc(-n6cncn6)cc5)cc4)cc23)cc1C(=O)O` (stereo not shown) [Example 119], the “Percentage activation” value in assay [2] (1 μM) stood at 99% at 1 μM. As for `Cn1cc(C2CC23C(=O)Nc2cc(Cl)c(-c4ccc(-c5ccc(-n6cccn6)cc5)cc4)cc23)cc1C(=O)O` (stereo not shown) [Example 120], the activation at 10 µM in assay [2] turned out to be 48%. Regarding `COc1ccc(C2CC23C(=O)Nc2cc(Cl)c(-c4ccc(-c5ccc(-n6cccn6)cc5)cc4)cc23)cc1C(=O)O` (stereo not shown) [Example 121], in assay [2] (3 μM), the activation at 3 µM was 91%.

For the compound `Cn1cc(C2CC23C(=O)Nc2cc(Cl)c(-c4ccc(-c5ccc(-n6cncn6)cc5)cc4)cc23)cc1C(=O)O` (stereo not shown) [Example 126], in assay [2] (1 μM), the activation at 1 µM was determined as 38%.

On to `O=C(O)Cc1ccc(C2CC23C(=O)Nc2cc(Cl)c(-c4ccc(-c5ccc(-n6cncn6)cc5)cc4)cc23)cc1` (stereo not shown) [Example 127], for which the activation at 3 µM in assay [2] (3 μM) was 71%. Still for that read-out and setting: in the case of `O=C(O)Cc1cccc(C2CC23C(=O)Nc2cc(Cl)c(-c4ccc(-c5ccc(-n6cncn6)cc5)cc4)cc23)c1` (stereo not shown) [Example 129] it was 15%; in that of `CC(C)c1ccc(C2CC23C(=O)Nc2cc(Cl)c(-c4ccc(-c5ccc(-n6cncn6)cc5)cc4)cc23)cc1C(=O)O` (stereo not shown) [Example 131], 47%; in that of `Cc1ccc(C2CC23C(=O)Nc2cc(Cl)c(-c4ccc(-c5ccc(-c6nnn[nH]6)cc5)cc4)cc23)cc1C(=O)O` (stereo not shown) [Example 136], 19%. With `CC(C)(C(=O)O)c1ccc(C2CC23C(=O)Nc2cc(Cl)c(-c4ccc(-c5ccc(-n6cncn6)cc5)cc4)cc23)cc1` (stereo not shown) [Example 137], the activation at 3 µM in assay [2] (3 μM) was determined as 48%. The same measure, in the same setting: to `Cc1ccc(C2CC23C(=O)Nc2cc(Cl)c(-c4ccc(-c5ccc(-n6cnnn6)cc5)cc4)cc23)cc1C(=O)O` (stereo not shown) [Example 140] belongs 21%; to `Cc1ccc(C2CC23C(=O)Nc2cc(F)c(-c4ccc(-c5ccc(-n6cccn6)cc5)cc4)cc23)cc1C(=O)O` (stereo not shown) [Example 141], 104%. Turning to `Cc1ccc(C2CC23C(=O)Nc2cc(F)c(-c4ccc(-c5ccc(-n6cccn6)cc5)cc4)cc23)cc1C(=O)O` (stereo not shown) [Example 144], the “Percentage activation” value in assay [2] (1 μM) was found to be 118% at 1 μM. The same measure, in the same setting: to `Cc1ccc(C2CC23C(=O)Nc2cc(F)c(-c4ccc(-c5ccc(-n6cncn6)cc5)cc4)cc23)cc1C(=O)O` (stereo not shown) [Example 147] belongs 32% at 1 μM; to `Cc1ccc(C2CC23C(=O)Nc2cc(F)c(-c4ccc(-c5ccc(-n6cncn6)cc5)cc4)cc23)cc1C(=O)O` (stereo not shown) [Example 148], 127% at 1 μM. In the case of `Cc1ccc(C2CC23C(=O)Nc2cc(Cl)c(-c4ccc(-c5ccc(-n6cncn6)cc5)c(F)c4)cc23)cc1C(=O)O` (stereo not shown) [Example 151], in assay [2] (1 μM), the “Percentage activation” value is 25% at 1 μM. On the same count and under the same terms, to `Cc1ccc(C2CC23C(=O)Nc2cc(Cl)c(-c4ccc(-c5ccc(-n6cncn6)cc5)c(F)c4)cc23)cc1C(=O)O` (stereo not shown) [Example 152] belongs 95% at 1 μM. `Cc1ccc(C2CC23C(=O)Nc2c3cc(-c3ccc(-c4ccc(-n5cccn5)cc4)cc3)c(Cl)c2Cl)cc1C(=O)O` (stereo not shown) [Example 153]: the activation at 1 µM in assay [2] (1 μM) was found to be 10%.

Turning to `Cc1ccc(C2CC23C(=O)Nc2c(F)cc(-c4ccc(-c5ccc(-n6cncn6)cc5)cc4)cc23)cc1C(=O)O` (stereo not shown) [Example 155], the activation at 1 µM in assay [2] (1 μM) amounted to 28%.

`Cc1ccc(C2CC23C(=O)Nc2cc(F)c(-c4ccc(-c5ccc6c(cnn6C)c5)cc4)cc23)cc1C(=O)O` (stereo not shown) [Example 160]: the activation at 1 µM in assay [2] (1 μM) stood at 11%.

As for `CC(C)(C(=O)O)c1ccc(C2CC23C(=O)Nc2cc(F)c(-c4ccc(-c5ccc(-n6cncn6)cc5)cc4)cc23)cc1` (stereo not shown) [Example 161], in assay [2] (1 μM), the “Percentage activation” value turned out to be 115% at 1 μM. `CC(C)(C(=O)O)c1ccc(C2CC23C(=O)Nc2cc(F)c(-c4ccc(-c5ccc(-n6cncn6)cc5)cc4)cc23)cc1` (stereo not shown) [Example 163]: the “Percentage activation” value in assay [2] (1 μM) came to 131% at 1 μM. For the compound `COc1ccc(C2CC23C(=O)Nc2cc(F)c(-c4ccc(-c5ccc(-n6cccn6)cc5)cc4)cc23)cc1C(=O)O` (stereo not shown) [Example 164], the activation at 1 µM in assay [2] (1 μM) worked out at 19%. In the case of `Cc1ccc(C2CC23C(=O)Nc2cc(Cl)c(-c4ccc(-n5cccn5)cc4)cc23)cc1C(=O)O` (stereo not shown) [Example 166], the activation at 3 µM in assay [2] (3 μM) came to 62%.

Consider `O=C(O)Cc1cccc(C2CC23C(=O)Nc2cc(F)c(-c4ccc(-c5ccc(-n6cccn6)cc5)cc4)cc23)c1` (stereo not shown) [Example 171], for which, in assay [2] (1 μM), the activation at 1 µM stood at 44%.

`O=C(O)Cc1cccc(C2CC23C(=O)Nc2cc(F)c(-c4ccc(-c5ccc(-n6ccnn6)cc5)cc4)cc23)c1` (stereo not shown) [Example 174]: the activation at 1 µM in assay [2] (1 μM) was found to be 87%.

`COc1ccc(C2CC23C(=O)Nc2cc(F)c(-c4ccc(-c5ccc(-n6ccnn6)cc5)cc4)cc23)cc1CC(=O)O` (stereo not shown) [Example 177]: in assay [2] (1 μM), the activation at 1 µM worked out at 51%. `O=C1Nc2cc(F)c(-c3ccc(-c4ccccc4O)cc3)cc2C12CC2c1cccc(-c2nnn[nH]2)c1` (stereo not shown) [Example 179]: the activation at 3 µM in assay [2] (3 μM) came to 23%. Still for that read-out and setting: in the case of `Cc1ccc(C2CC23C(=O)Nc2cc(Cl)c(-c4ccc(-c5ccccc5O)cc4)cc23)cc1C(=O)Nc1nnn[nH]1` (stereo not shown) [Example 183] it was 19%; in that of `Cc1ccc(C2CC23C(=O)Nc2cc(Cl)c(-c4ccc(-c5ccc(-n6cncn6)cc5)cc4)cc23)cc1CO` (stereo not shown) [Example 184], 36%. With `Cc1ccc(C2CC23C(=O)Nc2cc(Cl)c(-c4ccc(-c5ccc(-n6cncn6)cc5)cc4)cc23)cc1CO` (stereo not shown) [Example 185], in assay [2] (3 μM), the “Percentage activation” value came out at 34% at 3 μM. As to `Cc1ccc(C2CC23C(=O)Nc2cc(Cl)c(-c4ccc(-c5ccc(-n6cncn6)cc5)cc4)cc23)cc1C(C)(C)O` (stereo not shown) [Example 186], in assay [2] (3 μM), the activation at 3 µM stood at 32%.

With `O=C1Nc2cc(Cl)c(-c3ccc(-c4ccc(-n5cncn5)cc4)cc3)cc2C12CC2c1ccc(-c2nnn[nH]2)cc1` (stereo not shown) [Example 191], the activation at 3 µM in assay [2] (3 μM) came to 21%.
